Target: T1, USP28 (USP28-5(1-1077)-TEV-6*His; LifeSensors) (Homo sapiens, UniProt Q96RU2)
T1 construct: construct USP28 (USP28-5(1-1077)-TEV-6*His; LifeSensors); TEV cleavage site (C); 6xHis (C); purchased LifeSensors
T1 sequence (Q96RU2 1-1077): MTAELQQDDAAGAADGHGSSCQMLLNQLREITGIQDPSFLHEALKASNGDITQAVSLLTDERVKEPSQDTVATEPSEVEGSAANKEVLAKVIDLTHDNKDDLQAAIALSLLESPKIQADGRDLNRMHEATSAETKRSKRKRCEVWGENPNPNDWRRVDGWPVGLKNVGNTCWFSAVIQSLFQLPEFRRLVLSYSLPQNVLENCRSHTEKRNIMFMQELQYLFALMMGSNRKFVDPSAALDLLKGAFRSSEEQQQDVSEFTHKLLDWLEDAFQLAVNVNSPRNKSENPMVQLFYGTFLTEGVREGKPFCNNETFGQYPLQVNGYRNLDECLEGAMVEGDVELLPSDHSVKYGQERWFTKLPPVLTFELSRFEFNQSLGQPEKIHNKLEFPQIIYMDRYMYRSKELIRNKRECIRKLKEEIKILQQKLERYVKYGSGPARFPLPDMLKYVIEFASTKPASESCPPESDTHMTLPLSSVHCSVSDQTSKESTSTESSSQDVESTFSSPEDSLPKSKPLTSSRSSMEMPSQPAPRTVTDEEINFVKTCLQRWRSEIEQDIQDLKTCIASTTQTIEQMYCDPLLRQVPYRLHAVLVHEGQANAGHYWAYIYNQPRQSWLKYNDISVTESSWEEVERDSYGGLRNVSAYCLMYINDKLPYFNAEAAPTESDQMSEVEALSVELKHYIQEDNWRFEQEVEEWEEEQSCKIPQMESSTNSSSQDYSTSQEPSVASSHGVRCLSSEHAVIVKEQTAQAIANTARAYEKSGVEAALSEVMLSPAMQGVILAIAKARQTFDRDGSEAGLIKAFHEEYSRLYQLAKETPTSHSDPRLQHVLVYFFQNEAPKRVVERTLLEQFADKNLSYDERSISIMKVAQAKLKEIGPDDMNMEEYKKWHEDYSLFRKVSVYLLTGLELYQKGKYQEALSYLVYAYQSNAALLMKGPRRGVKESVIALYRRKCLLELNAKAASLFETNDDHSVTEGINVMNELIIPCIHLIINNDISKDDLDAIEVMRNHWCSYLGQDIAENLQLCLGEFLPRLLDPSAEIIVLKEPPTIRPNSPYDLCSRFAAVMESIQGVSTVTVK
Assay: Ubiquitin-Rhodamine 110 Assay for USP28 Activity, Example A-1(b)
Type: biochemical
Details: Ubiquitin-Rhodamine 110 assay, Example A-1(b)
Outline: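 Single-point screening used 10 μM compound with 90 min room-temperature incubation; follow-up dose-responses (25 μM top, 3-fold) used 75 pM USP28 1-1077 construct, 30 min compound preincubation, 25 nM Ub-Rh110, 20 min reaction, citric acid quench. Rh110 fluorescence normalised to no-enzyme and DMSO controls; IC50 from 4-parameter logistic fit.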

Cc1cnc2c(N)c(C(=O)N[C@H]3COc4cc(N5CC6CCC(C5)N6)c(F)cc4C3)sc2n1 (single isomer, unassigned) [Example 40]
USP28 A-1(b) IC50 range: +++ (0.05-0.2 μM)

Cc1cnc2c(N)c(C(=O)N[C@@H]3COc4cc(N5CC6CCC(C5)N6)c(F)cc4C3)sc2n1 (single isomer, unassigned) [Example 41]
USP28 A-1(b) IC50 range: + (>2 μM)

CCc1cnc2sc(C(=O)N[C@H]3COc4cc(N5CCNCC5)ccc4C3)c(N)c2n1 [Example 36, (R)-7-amino-2-ethyl-N-(7-(piperazin-1-yl)chroman-3-yl)thieno[2,3-b]pyrazine-6-carboxamide]
USP28 A-1(b) IC50 range: ++ (0.2-2 μM)

CCc1cnc2sc(C(=O)N[C@@H]3COc4cc(N5CCNCC5)ccc4C3)c(N)c2n1 [Example 37, (S)-7-amino-2-ethyl-N-(7-(piperazin-1-yl)chroman-3-yl)thieno[2,3-b]pyrazine-6-carboxamide]
USP28 A-1(b) IC50 range: + (>2 μM)

O=C(N[C@H]1COc2cc(N3CCNCC3)ccc2C1)c1cnc2c(ccn2C(F)F)c1 [Example 38, (R)-1-(difluoromethyl)-N-(7-(piperazin-1-yl)chroman-3-yl)-1H-pyrrolo[2,3-b]pyridine-5-carboxamide]
USP28 A-1(b) IC50 range: + (>2 μM)

O=C(N[C@@H]1COc2cc(N3CCNCC3)ccc2C1)c1cnc2c(ccn2C(F)F)c1 [Example 39, (S)-1-(difluoromethyl)-N-(7-(piperazin-1-yl)chroman-3-yl)-1H-pyrrolo[2,3-b]pyridine-5-carboxamide]
USP28 A-1(b) IC50 range: + (>2 μM)

Cc1ccc2c(N)c(C(=O)N[C@H]3COc4cc(N5C[C@H]6CNC[C@@H]6C5)ccc4C3)sc2n1 [Example 43, 3-amino-N-((R)-7-((3aR,6aR)-hexahydropyrrolo[3,4-c]pyrrol-2(1H)-yl)chroman-3-yl)-6-methylthieno[2,3-b]pyridine-2-carboxamide]
USP28 A-1(b) IC50 range: + (>2 μM)

Cc1ccc2c(N)c(C(=O)N[C@@H]3COc4cc(N5C[C@H]6CNC[C@@H]6C5)ccc4C3)sc2n1 [Example 44, 3-amino-N-((S)-7-((3aR,6aR)-hexahydropyrrolo[3,4-c]pyrrol-2(1H)-yl)chroman-3-yl)-6-methylthieno[2,3-b]pyridine-2-carboxamide]
USP28 A-1(b) IC50 range: + (>2 μM)

Nc1c(C(=O)N[C@H]2COc3cc(N4CCNCC4)ccc3C2)sc2nc(C3CC3)sc12 [Example 45]
USP28 A-1(b) IC50 range: ++ (0.2-2 μM)

Cc1nc2sc(C(=O)N[C@@H]3COc4cc(N5CC6CCC(C5)N6)c(F)cc4C3)c(N)c2s1 [Example 46, N-((3S)-7-(3 8-diazabicyclo[3.2.1]octan-3-yl)-6-fluorochroman-3-yl)-6-amino-2-methylthieno[2,3-d]thiazole-5-carboxamide]
USP28 A-1(b) IC50 range: ++ (0.2-2 μM)

Cc1nc2sc(C(=O)N[C@H]3COc4cc(N5CC6CCC(C5)N6)c(F)cc4C3)c(N)c2s1 [Example 47, N-((3R)-7-(3,8-diazabicyclo[3.2.1]octan-3-yl)-6-fluorochroman-3-yl)-6-amino-2-methylthieno[2,3-d]thiazole-5-carboxamide]
USP28 A-1(b) IC50 range: + (>2 μM)

Cc1ccc2c(N)c(C(=O)N[C@H]3COc4cc(N5CCNCC5)cc(Cl)c4C3)sc2n1 [Example 48, (R)-3-amino-N-(5-chloro-7-(piperazin-1-yl)chroman-3-yl)-6-methylthieno[2,3-b]pyridine-2-carboxamide]
USP28 A-1(b) IC50 range: +++ (0.05-0.2 μM)

Cc1ccc2c(N)c(C(=O)N[C@@H]3COc4cc(N5CCNCC5)cc(Cl)c4C3)sc2n1 [Example 49, (S)-3-amino-N-(5-chloro-7-(piperazin-1-yl)chroman-3-yl)-6-methylthieno[2,3-b]pyridine-2-carboxamide]
USP28 A-1(b) IC50 range: + (>2 μM)

O=C(N[C@H]1COc2cc(N3CC4CCC(C3)N4)ccc2C1)c1cnc2c(c1)CCCN2 [Example 50, N-((3R)-7-(3,8-diazabicyclo[3.2.1]octan-3-yl)chroman-3-yl)-5,6,7,8-tetrahydro-1,8-naphthyridine-3-carboxamide]
USP28 A-1(b) IC50 range: ++ (0.2-2 μM)

O=C(N[C@H]1COc2cc(N3CC4CCC(C3)N4)ccc2C1)c1cnc2c(c1)CCCO2 [Example 51, N-((3R)-7-(3,8-diazabicyclo[3.2.1]octan-3-yl)chroman-3-yl)-3,4-dihydro-2H-pyrano[2,3-b]pyridine-6-carboxamide]
USP28 A-1(b) IC50 range: + (>2 μM)

O=C(N[C@H]1COc2cc(N3CCNCC3)ccc2C1)c1ccc(NCc2ccccc2)nc1 [Example 52, (R)-6-(benzylamino)-N-(7-(piperazin-1-yl)chroman-3-yl)nicotinamide]
USP28 A-1(b) IC50 range: + (>2 μM)

C[C@H](Nc1ccc(C(=O)N[C@H]2COc3cc(N4CCNCC4)ccc3C2)cn1)c1ccccc1 [Example 53, 6-(((S)-1-phenylethyl)amino)-N-((R)-7-(piperazin-1-yl)chroman-3-yl)nicotinamide]
USP28 A-1(b) IC50 range: + (>2 μM)

C[C@@H](Nc1ccc(C(=O)N[C@H]2COc3cc(N4CCNCC4)ccc3C2)cn1)c1ccccc1 [Example 54, 6-(((R)-1-phenylethyl)amino)-N-((R)-7-(piperazin-1-yl)chroman-3-yl)nicotinamide]
USP28 A-1(b) IC50 range: + (>2 μM)

Cc1ccc2c(N)c(C(=O)N[C@H]3COc4c(F)c(N5CCNCC5)cc(F)c4C3)sc2n1 [Example 55, (R)-3-amino-N-(5,8-difluoro-7-(piperazin-1-yl)chroman-3-yl)-6-methylthieno[2,3-b]pyridine-2-carboxamide]
USP28 A-1(b) IC50 range: ++++ (0.001-0.05 μM)

Cc1nc2sc(C(=O)N[C@H]3COc4c(F)c(N5CCNCC5)cc(F)c4C3)c(N)c2s1 [Example 56, (R)-6-amino-N-(5,8-difluoro-7-(piperazin-1-yl)chroman-3-yl)-2-methylthieno[2,3-d]thiazole-5-carboxamide]
USP28 A-1(b) IC50 range: +++ (0.05-0.2 μM)

O=C(N[C@H]1COc2cc(N3CCNCC3)ccc2C1)c1cnc2c(c1)CC[C@H]2O [Example 57, (R)-7-hydroxy-N-((R)-7-(piperazin-1-yl)chroman-3-yl)-6,7-dihydro-5H-cyclopenta[b]pyridine-3-carboxamide]
USP28 A-1(b) IC50 range: + (>2 μM)

O=C(N[C@H]1COc2cc(N3CCNCC3)ccc2C1)c1cnc2c(c1)CC[C@@H]2O [Example 58, (S)-7-hydroxy-N-((R )-7-(piperazin-1-yl)chroman-3-yl)-6,7-dihydro-5H-cyclopenta[b]pyridine-3-carboxamide]
USP28 A-1(b) IC50 range: + (>2 μM)

O=C(N[C@H]1COc2cc(N3CCNCC3)ccc2C1)c1cnc2c(ccn2Cc2ccccc2)c1 [Example 59, (R)-1-benzyl-N-(7-(piperazin-1-yl)chroman-3-yl)-1H-pyrrolo[2,3-b]pyridine-5-carboxamide]
USP28 A-1(b) IC50 range: +++ (0.05-0.2 μM)

Cc1cnc2c(N)c(C(=O)N[C@H]3COc4c(C#N)c(N5CCNCC5)cc(F)c4C3)sc2n1 [Example 60, (R)-7-amino-N-(8-cyano-5-fluoro-7-(piperazin-1-yl)chroman-3-yl)-3-methylthieno[2,3-b]pyrazine-6-carboxamide]
USP28 A-1(b) IC50 range: ++ (0.2-2 μM)

Cc1ccc2c(N)c(C(=O)N[C@H]3COc4cc(N5CCNCC5)c(F)c(F)c4C3)sc2n1 [Example 61, (R)-3-amino-N-(5,6-difluoro-7-(piperazin-1-yl)chroman-3-yl)-6-methylthieno[2,3-b]pyridine-2-carboxamide]
USP28 A-1(b) IC50 range: +++ (0.05-0.2 μM)

Cc1ccc2c(N)c(C(=O)N[C@H]3COc4cc([C@H]5CCNC[C@H]5O)ccc4C3)sc2n1 [Example 62, 3-amino-N-((R)-7-((3S,4R)-3-hydroxypiperidin-4-yl)chroman-3-yl)-6-methylthieno[2,3-b]pyridine-2-carboxamide]
USP28 A-1(b) IC50 range: ++++ (0.001-0.05 μM)

Cc1ccc2c(N)c(C(=O)N[C@H]3COc4cc([C@@H]5CCNC[C@@H]5O)ccc4C3)sc2n1 [Example 63, 3-amino-N-((R)-7-((3R,4S)-3-hydroxypiperidin-4-yl)chroman-3-yl)-6-methylthieno[2,3-b]pyridine-2-carboxamide]
USP28 A-1(b) IC50 range: +++ (0.05-0.2 μM)

C[C@H]1CCc2cc(C(=O)N[C@H]3COc4cc(N5CC6CCC(C5)N6)ccc4C3)cnc2N1 [Example 73, (7S)-N-((3R)-7-(3,8-diazabicyclo[3.2.1]octan-3-yl)chroman-3-yl)-7-methyl-5,6,7,8-tetrahydro-1,8-naphthyridine-3-carboxamide]
USP28 A-1(b) IC50 range: + (>2 μM)

— patent US11524966B1 (Valo Early Discovery, Inc., priority 2017, dated 2022)
